Results published in patent US20250352550A1, “SUBSTITUTED FUROPYRIDINES FOR THERAPEUTIC USE” (MASARYKOVA UNIVERZITA, priority 2022, published 2025).

Legend:
FLT3 = target: T1, FLT3 (Homo sapiens, UniProt P36888); test: HotSpot radiometric kinase assay (Reaction Biology), FLT3; type: biochemical; details: 4 nM kinase, substrate ABLtide 20 μM, 33P-ATP, 120 minutes at room temperature
T1 construct: purchased Reaction Biology
T1 sequence (P36888 27-993): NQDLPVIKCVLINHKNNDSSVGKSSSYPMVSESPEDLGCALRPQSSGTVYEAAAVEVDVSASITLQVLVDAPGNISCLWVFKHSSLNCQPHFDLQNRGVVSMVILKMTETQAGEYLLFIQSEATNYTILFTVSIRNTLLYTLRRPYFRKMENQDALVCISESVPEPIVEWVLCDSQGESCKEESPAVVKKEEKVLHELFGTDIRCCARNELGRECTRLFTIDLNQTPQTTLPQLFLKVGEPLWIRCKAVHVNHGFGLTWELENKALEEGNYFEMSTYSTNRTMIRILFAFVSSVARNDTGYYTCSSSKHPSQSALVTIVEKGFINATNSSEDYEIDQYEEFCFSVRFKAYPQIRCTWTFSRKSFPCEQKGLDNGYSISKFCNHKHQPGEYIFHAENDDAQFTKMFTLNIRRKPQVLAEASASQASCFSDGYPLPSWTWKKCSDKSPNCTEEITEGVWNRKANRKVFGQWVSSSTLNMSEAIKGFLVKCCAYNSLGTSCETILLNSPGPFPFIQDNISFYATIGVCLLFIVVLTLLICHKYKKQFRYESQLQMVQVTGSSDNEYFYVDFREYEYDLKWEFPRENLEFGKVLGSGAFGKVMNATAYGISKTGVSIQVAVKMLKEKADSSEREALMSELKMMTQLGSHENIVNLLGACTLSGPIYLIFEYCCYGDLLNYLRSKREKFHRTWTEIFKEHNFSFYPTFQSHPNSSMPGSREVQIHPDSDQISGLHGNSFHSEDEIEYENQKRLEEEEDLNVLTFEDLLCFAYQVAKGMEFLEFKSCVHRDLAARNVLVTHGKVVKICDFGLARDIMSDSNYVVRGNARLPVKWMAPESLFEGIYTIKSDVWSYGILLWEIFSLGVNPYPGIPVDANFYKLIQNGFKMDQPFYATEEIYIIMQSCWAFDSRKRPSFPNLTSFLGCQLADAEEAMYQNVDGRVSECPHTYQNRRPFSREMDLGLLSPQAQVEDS
Description: (§1) The compounds were profiled in the HotSpot radiometric assays (Reaction Biology).
(§2) Briefly, • 1. Substrate indicated in Table 1 was dissolved in freshly prepared reaction buffer (20 mM HEPES (pH 7.5), 10 mM MgCl2, 1 mM EGTA, 0.01% Brij35, 0.02 mg/ml BSA, 0.1 mM Na3VO4, 2 mM DTT, 1% DMSO) at the concentration indicated in Table 1. • 2. Corresponding kinase (concentration indicated in Table 1) was added and the mixture was gently mixed. • 3. Tested compound dissolved in DMSO was added into the kinase reaction mixture. • 4. ^33P-ATP (specific activity 0.01 μCi/μL final) was added into the reaction mixture to initiate the reaction. • 5. The kinase reaction was incubated for 120 minutes at room temperature. • 6. Reaction mixture was spotted onto P81 ion exchange paper (Whatman K 3698-915). • 7. The filters were extensively washed with 0.754 phosphoric acid. • 7. The radioactive phosphorylated substrate remaining on the filter paper was measured.
(§3) Kinase activity data were expressed as the percent remaining kinase activity in tested samples compared to the vehicle (DMSO) reactions. IC50 values and curve fits were obtained using Prism4 Software (GraphPad).
Table 2 summarizes the inhibitory activities of indicated compounds tested in the in vitro kinase assays described above.

DDR1 = target: T2, DDR1 (Homo sapiens, UniProt Q08345); test: HotSpot radiometric kinase assay (Reaction Biology), DDR1; type: biochemical; details: 200 nM kinase, substrate IRS1tide 20 μM, 33P-ATP, 120 minutes at room temperature
T2 construct: purchased Reaction Biology
T2 sequence (Q08345 19-913): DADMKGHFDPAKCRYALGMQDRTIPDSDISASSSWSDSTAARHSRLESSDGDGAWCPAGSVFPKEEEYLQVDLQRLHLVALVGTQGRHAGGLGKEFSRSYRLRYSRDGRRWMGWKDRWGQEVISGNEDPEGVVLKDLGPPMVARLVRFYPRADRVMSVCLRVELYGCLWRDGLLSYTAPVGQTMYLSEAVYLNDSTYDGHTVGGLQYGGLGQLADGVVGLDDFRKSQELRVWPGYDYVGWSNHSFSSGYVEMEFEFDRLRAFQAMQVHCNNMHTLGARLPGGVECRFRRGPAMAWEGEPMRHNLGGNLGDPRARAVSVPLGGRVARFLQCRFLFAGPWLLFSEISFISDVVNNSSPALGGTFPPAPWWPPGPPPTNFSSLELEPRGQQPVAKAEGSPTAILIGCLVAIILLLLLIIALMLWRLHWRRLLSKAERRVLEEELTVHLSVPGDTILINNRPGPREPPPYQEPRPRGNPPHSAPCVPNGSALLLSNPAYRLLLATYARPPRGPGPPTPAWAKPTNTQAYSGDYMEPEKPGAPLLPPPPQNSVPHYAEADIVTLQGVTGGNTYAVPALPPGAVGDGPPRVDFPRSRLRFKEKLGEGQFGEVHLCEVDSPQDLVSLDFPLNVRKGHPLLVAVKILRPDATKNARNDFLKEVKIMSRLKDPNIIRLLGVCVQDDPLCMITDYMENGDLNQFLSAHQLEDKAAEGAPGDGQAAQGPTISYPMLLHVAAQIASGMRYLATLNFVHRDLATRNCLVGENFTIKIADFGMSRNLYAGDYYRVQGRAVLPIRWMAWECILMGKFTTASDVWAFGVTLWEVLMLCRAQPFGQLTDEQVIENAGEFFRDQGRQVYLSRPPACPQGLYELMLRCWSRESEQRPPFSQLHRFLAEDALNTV
Description: as §1
as §2, with “Reaction mixture was spotted onto P81 ion exchange paper (Whatman K 3698-915). • 7. The filters were extensively washed with 0.754 phosphoric acid. • 7.” left out
as §3

Structure (SMILES) | IC50 (FLT3) [µM] | IC50 (DDR1) [µM]
Cn1ccc(-c2coc3cc(-c4ccc(N5CCNCC5)cc4)cnc23)n1 [Preparative Example 37, 3-(1-methyl-1H-pyrazol-3-yl)-6-(4-(piperazin-1-yl)phenyl)furo[3,2-b]pyridine] | 0.282 | 0.222
O=[N+]([O-])c1cccc(-c2coc3cc(-c4ccc(N5CCNCC5)cc4)cnc23)c1 [Preparative Example 40, 3-(3-nitrophenyl)-6-(4-(piperazin-1-yl)phenyl)furo[3,2-b]pyridine] | 0.142 | 0.098
Cc1ccc(-c2coc3cc(-c4ccc(N5CCNCC5)cc4)cnc23)cc1 [Preparative Example 43, 6-(4-(piperazin-1-yl)phenyl)-3-(p-tolyl)furo[3,2-b]pyridine] | 0.175 | 0.126
CC(C)(C)Sc1cccc(-c2coc3cc(-c4ccc(N5CCNCC5)cc4)cnc23)c1 [Preparative Example 46, 3-(3-(tert-butylthio)phenyl)-6-(4-(piperazin-1-yl)phenyl)furo[3,2-b]pyridine] | 0.578 | 0.586
c1cc(-c2coc3cc(-c4ccc(N5CCNCC5)cc4)cnc23)co1 [Preparative Example 57, 3-(furan-3-yl)-6-(4-(piperazin-1-yl)phenyl)furo[3,2-b]pyridine] | 0.022 | 0.172
CN1CCN(c2ccc(-c3cnc4c(-c5ccncc5)coc4c3)cc2)CC1 [Preparative Example 58, 6-(4-(4-methylpiperazin-1-yl)phenyl)-3-(pyridin-4-yl)furo[3,2-b]pyridine] | 0.031 | 0.364
NS(=O)(=O)c1cccc(-c2coc3cc(-c4ccc(N5CCNCC5)cc4)cnc23)c1 [Preparative Example 64, 3-(6-(4-(piperazin-1-yl)phenyl)furo[3,2-b]pyridin-3-yl)benzenesulfonamide] | 0.026 | 0.134
COCc1cccc(-c2coc3cc(-c4ccc(N5CCNCC5)cc4)cnc23)c1 [Preparative Example 70, 3-(3-(methoxymethyl)phenyl)-6-(4-(piperazin-1-yl)phenyl)furo[3,2-b]pyridine] | 0.054 | 0.196
FC(F)(F)c1cccc(-c2coc3cc(-c4ccc(N5CCNCC5)cc4)cnc23)c1 [Preparative Example 73, 6-(4-(piperazin-1-yl)phenyl)-3-(3-(trifluoromethyl)phenyl)furo[3,2-b]pyridine] | 0.717 | 0.966
CCOC(=O)Nc1cccc(-c2coc3cc(-c4ccc(N5CCN(C)CC5)cc4)cnc23)c1 [Preparative Example 83, ethyl (3-(6-(4-(4-methylpiperazin-1-yl)phenyl)furo[3,2-b]pyridin-3-yl)phenyl)carbamate] | 0.099 | 0.622
CN1CCN(c2ccc(Nc3cnc4c(-c5ccccc5)coc4c3)cc2)CC1 [Preparative Example 101, N-(4-(4-methylpiperazin-1-yl)phenyl)-3-phenylfuro[3,2-b]pyridin-6-amine] | 0.146 | 0.347
c1ccc(Oc2cccc(-c3coc4cc(-c5ccc(N6CCNCC6)cc5)cnc34)c2)cc1 [Preparative Example 104, 3-(3-phenoxyphenyl)-6-(4-(piperazin-1-yl)phenyl)furo[3,2-b]pyridine] | 0.121 | 0.252
FC(F)(F)Oc1cccc(-c2coc3cc(-c4ccc(N5CCNCC5)cc4)cnc23)c1 [Preparative Example 113, 6-(4-(piperazin-1-yl)phenyl)-3-(3-(trifluoromethoxy)phenyl)furo[3,2-b]pyridine] | 0.649 | 0.869
FC(F)(F)COc1cccc(-c2coc3cc(-c4ccc(N5CCNCC5)cc4)cnc23)c1 [Preparative Example 116, 6-(4-(piperazin-1-yl)phenyl)-3-(3-(2,2,2-trifluoroethoxy)phenyl)furo[3,2-b]pyridine] | 0.353 | 0.673
CS(=O)(=O)NCc1cccc(-c2coc3cc(-c4ccc(N5CCNCC5)cc4)cnc23)c1 [Preparative Example 125, N-(3-(6-(4-(piperazin-1-yl)phenyl)furo[3,2-b]pyridin-3-yl)benzyl)methanesulfonamide] | 0.021 | 0.198
CN(C)c1cccc(-c2coc3cc(-c4ccc(N5CCNCC5)cc4)cnc23)c1 [Preparative Example 131, N,N-dimethyl-3-(6-(4-(piperazin-1-yl)phenyl)furo[3,2-b]pyridin-3-yl)aniline] | 0.345 | 0.385

Other lines, results leading:

IC50 (FLT3) [µM] | IC50 (DDR1) [µM] | Structure (SMILES)
0.269 | 0.472 | CN1CCN(c2ccc(-c3cnc4c(-c5cccc(C(=O)c6ccccc6)c5)coc4c3)cc2)CC1 [Preparative Example 133, (3-(6-(4-(4-methylpiperazin-1-yl)phenyl)furo[3,2-b]pyridin-3-yl)phenyl)(phenyl)methanone]
0.35 | 0.423 | CN1CCN(c2ccc(-c3cnc4c(-c5cccc(CNC(=O)OC(C)(C)C)c5)coc4c3)cc2)CC1 [Preparative Example 135, tert-butyl (3-(6-(4-(4-methylpiperazin-1-yl)phenyl)furo[3,2-b]pyridin-3-yl)benzyl)carbamate]
0.078 | 0.206 | CC(=O)NCc1cccc(-c2coc3cc(-c4ccc(N5CCN(C)CC5)cc4)cnc23)c1 [Preparative Example 137, N-(3-(6-(4-(4-methylpiperazin-1-yl)phenyl)furo[3,2-b]pyridin-3-yl)benzyl)acetamide]
0.805 | 0.763 | CCNS(=O)(=O)Cc1cccc(-c2coc3cc(-c4ccc(N5CCN(C)CC5)cc4)cnc23)c1 [Preparative Example 141, N-ethyl-1-(3-(6-(4-(4-methylpiperazin-1-yl)phenyl)furo[3,2-b]pyridin-3-yl)phenyl)methanesulfonamide]
0.118 | 0.773 | CN1CCN(c2ccc(-c3cnc4c(-c5cccc(CS(=O)(=O)N(C)C)c5)coc4c3)cc2)CC1 [Preparative Example 145, N,N-dimethyl-1-(3-(6-(4-(4-methylpiperazin-1-yl)phenyl)furo[3,2-b]pyridin-3-yl)phenyl)methane-sulfonamide]
0.203 | 0.236 | CSc1cccc(-c2coc3cc(-c4ccc(N5CCN(C)CC5)cc4)cnc23)c1 [Preparative Example 147, 6-(4-(4-methylpiperazin-1-yl)phenyl)-3-(3-(methylthio)phenyl)furo[3,2-b]pyridine]
0.024 | 0.073 | CCNC(=O)Cc1cccc(-c2coc3cc(-c4ccc(N5CCNCC5)cc4)cnc23)c1 [Preparative Example 152, N-ethyl-2-(3-(6-(4-(piperazin-1-yl)phenyl)furo[3,2-b]pyridin-3-yl)phenyl)acetamide]
0.022 | 0.157 | CN1CCN(c2ccc(-c3cnc4c(-c5cccc(CC(N)=O)c5)coc4c3)cc2)CC1 [Preparative Example 154, 2-(3-(6-(4-(4-methylpiperazin-1-yl)phenyl)furo[3,2-b]pyridin-3-yl)phenyl)acetamide]
